Experiment in all cases: Post-emergent Test III, herbicidal activity in wheat and barley
Holding throughout (type): in vivo

Experiment [1] deals with STEME: common chickweed (Stellaria media). The settings on record: for pest or weed control at 35 g/ha / pest or weed control at 70 g/ha / pest or weed control at 140 g/ha: Stellaria media, post-emergence, 504 h, read-out: Visual Growth Reduction (%) 21 Days After Application STEME; for pest or weed control at 35 g/ha: 35 g ai/ha; for pest or weed control at 70 g/ha: 70 g ai/ha; for pest or weed control at 140 g/ha: 140 g ai/ha; for GR50 STEME / GR80 STEME: probit analysis, 21 days after application; for GR50 STEME: dose for growth reduction of 50 percent; for GR80 STEME: dose for growth reduction of 80 percent. Put shortly: (§1)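 GR20, GR50, GR80 and GR90 come from probit analysis of visual injury scores (0 = none, 100 = complete kill) taken 21 d after treatment. Foliar application was by track sprayer delivering 187 L/ha at five rates, from high down to 1/16×, onto greenhouse plants at the 2–3 leaf stage, with solvent-blank controls.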

The subject of experiment [2] is PHAMI: lesser canary grass (Phalaris minor). The settings on record: for pest or weed control at 35 g/ha / pest or weed control at 70 g/ha / pest or weed control at 140 g/ha: Phalaris minor, post-emergence, 504 h, read-out: Visual Growth Reduction (%) 21 Days After Application PHAMI; for pest or weed control at 35 g/ha: 35 g ai/ha; for pest or weed control at 70 g/ha: 70 g ai/ha; for pest or weed control at 140 g/ha: 140 g ai/ha; for GR50 PHAMI / GR80 PHAMI: probit analysis, 21 days after application; for GR50 PHAMI: dose for growth reduction of 50 percent; for GR80 PHAMI: dose for growth reduction of 80 percent. Put shortly: as §1

Experiment [3] relates to GALAP: cleavers (Galium aparine). The settings on record: Table 8, 21 d; for pest or weed control at 35 g/ha / pest or weed control at 70 g/ha: Galium aparine, post-emergence, 504 h, post-emergent, read-out: Visual Growth Reduction (%) 21 Days After Application GALAP; for pest or weed control at 35 g/ha: 35 g ai/ha; for pest or weed control at 70 g/ha: 70 g ai/ha; for GR50 GALAP: dose for 50 percent growth reduction; for GR50 GALAP / GR80 GALAP: probit analysis; for GR80 GALAP: dose for 80 percent growth reduction. Summed up:
as §1

Molecules are shown by their SMILES. A value given as a limit tells only on which side of the number the result lay.

These results are taken from US9113629B2, “4-amino-6-(4-substituted-phenyl)-picolinates and 6-amino-2-(4-substituted-phenyl)-pyrimidine-4-carboxylates and their use as herbicides” (DOW AGROSCIENCES LLC, priority 2013, dated 2015).

For `Nc1cc(-c2ccc(Br)c(F)c2F)nc(C(=O)O)c1Cl` [Compound 91], in experiment [1], the pest or weed control at 35 g/ha lay in the range of 0 to 29%, the pest or weed control at 70 g/ha lay in the range of 30 to 44%, the pest or weed control at 140 g/ha fell in the range of 45 to 59% and the “GR50 STEME” value was more than 140 g ai/ha. Further, the “GR80 STEME” value in experiment [1] was more than 140 g ai/ha. In experiment [2], the pest or weed control at 35 g/ha lay in the range of 30 to 44%, the pest or weed control at 70 g/ha is 30 to 44%, the pest or weed control at 140 g/ha was in the range of 30 to 44% and the “GR50 PHAMI” value is more than 140 g ai/ha. Moreover, the “GR80 PHAMI” value in experiment [2] was more than 140 g ai/ha.

As to `Nc1cc(-c2ccc(Br)c(F)c2)nc(C(=O)O)c1Cl` [Compound 110, 4-Amino-6-(4-bromo-3-fluorophenyl)-3-chloropicolinic acid], in experiment [3], the pest or weed control at 35 g/ha was in the range of 95 to 100%, the pest or weed control at 70 g/ha fell in the range of 95 to 100%, the “GR50 GALAP” value worked out at 1 g ai/ha and the “GR80 GALAP” value is 1 g ai/ha.

On to `COc1c(N)nc(-c2ccc(Br)c(F)c2)nc1C(=O)O` [Compound 113, 6-Amino-2-(4-bromo-3-fluorophenyl)-5-methoxypyrimidine-4-carboxylic acid], for which, in experiment [3], the pest or weed control at 35 g/ha was 95 to 100%, the pest or weed control at 70 g/ha was 95 to 100%, the “GR50 GALAP” value was determined as 5 g ai/ha and the “GR80 GALAP” value is listed as 12 g ai/ha.

With `Nc1c(F)c(-c2ccc(Cl)c(F)c2)nc(C(=O)O)c1Cl` [Compound 217], in experiment [1], the pest or weed control at 35 g/ha was 60 to 74%, the pest or weed control at 70 g/ha is 75 to 84%, the pest or weed control at 140 g/ha is 75 to 84% and the “GR50 STEME” value was 28 g ai/ha. For the same compound, the “GR80 STEME” value in experiment [1] amounted to 88 g ai/ha. Moreover, in experiment [2], the pest or weed control at 35 g/ha is 85 to 94%, the pest or weed control at 70 g/ha is 85 to 94%, the pest or weed control at 140 g/ha is 85 to 94% and the “GR50 PHAMI” value came out at 11 g ai/ha. The “GR80 PHAMI” value in experiment [2] is 30 g ai/ha.
